{
  "source": "patent US20070026090A1",
  "about": "“Treatment and prevention of inflammatory disease and mitochondrial dysfunction with high dose selenium” (priority 2003, published 2007)",
  "key": {"[1]": {"system": "mitochondrial respiration in colon tissue", "test": "Mitochondrial respiration (oxygen consumption) in colon tissue of supplemented rats", "assay_type": "in vivo, rat", "protocol": "Mitochondrial respiration activity in colon tissue: Mitochondrial respiration was measured by direct assessment of oxygen consumption of the tissue. Briefly, colons were removed, chilled on ice, and washed extensively with cold PBS. Colon tissue samples (5-10 mm in width, 100 mg) were incubated at ambient temperature in PBS supplemented with 5 mM glucose. Oxygen consumption was measured polarographically using a computerized Clark-type oxygen electrode. The addition of the Electron Transport Chain (complex 1) inhibitor rotenone was used to determine whether the majority of oxygen consumption measured in the colon samples was mitochondrial respiration-dependent."}, "[2]": {"system": "lipid peroxidation (MDA)", "test": "Lipid peroxidation: MDA levels in colon tissue (HPLC)", "assay_type": "in vivo, rat", "conditions": "colitis-induced and uninduced rats, selenium supplemented group; data not presented", "protocol": "Lipid peroxidation—MDA levels: MDA levels in the colon tissue were determined as an indicator of lipid peroxidation using HPLC methodology (Valacchi et al., 2000). Briefly, tissue sections (100 mg) were homogenized in 1% Triton X 100 PBS. The suspended tissue was diluted 1:1 with 1% SDS solution and incubated with 250 ul TBA reagent (0.375 g TBA/100 ml) and 200 ul phosphoric acid (1.22 M) for 30 min at 100° C. Methanol ([…]) was added for protein precipitation and NaOH (20 ml, 1N) added for pH neutralization. After centrifugation, 100 ul clear supernatant was injected into a HPLC system, using a C185 m, 250 mm^a 4.6 mm internal diameter, reversed phase column (Alltech, Deerfield, Ill., USA). The mobile phase consisted of 60% methanol and 40% 50 mM NaH2PO4, pH 5.5. The flow rate was 0.9 ml/min and the detector was set to 532 nm. HPLC colarray ESA was used."}, "[3]": {"system": "mtTFA", "test": "mtTFA mRNA in colon tissue (RT-PCR)", "assay_type": "in vivo, rat", "protocol": "Mitochondrial (mt) TFA, NRF1, and cytochrome c mRNA analysis: Total RNA was extracted from 50 to 100 mg tissue at a time using 1 ml of Tri Reagent® (Sigma-Aldrich Corp., St. Louis, Mo.) according to manufacturer's instructions. First strand cDNA synthesis was carried out using reverse-iTTM First Strand Synthesis from Advanced Biotechnologies (ABgene®, ABgene, Epsom, U.K.) was used according to the manufacturer's instructions. Target sequences were amplified in the PCR reaction as follows: each tube contained 37 ng of cDNA from cytochrome c, GAPDH, or 18S, 3 μl of specific primers, 12.5 μl of ready Mix and 6.5 μl water DEPC (for a total 25 μl in each tube).\nThe PCR for cytochrome c, NRF1 and mtTFA was run at 95° C. for 5 min, 94° C. for 30 sec, 56° C. for 2 min, 72° C. for 1 min, back to stage 2 for 22, 26, 24 cycles, respectively, then 72° C. for 10 min, and 4° C. The products of the PCR were separated on a 1% agarose gel in TAE buffer with ethidium bromide. The electrophoresis took place in a BioRad device in 1×TAE buffer at 95 V for about 50 min (maximum mA). The size of the cDNA was determined by a 100-bp marker.\nRat mtTFA: (Antisense) 5′-[…]-3′ (SEQ ID No. 15) corresponding to nucleotides 756 to 777 of rat mtMTFA (GenBank Accession No. AJ312746).\n(Sense): 5′-[…]-3′ (SEQ ID No. 16). The expected PCR product was 417 bp, the actual 417 bp."}, "[4]": {"system": "J774.2 macrophages", "test": "Intracellular ROS (H2O2) production, DCF fluorescence", "assay_type": "cell-based, murine", "protocol": "Cell culture: Murine J774.2 macrophages (kindly provided by Prof. Dov Zipori from the Weizmann Institute of Science) were grown in RPMI medium supplemented with 10% (w/v) fetal calf serum, penicillin (100 U/ml), streptomycin (100 μg/ml) and 1× glutamine at 37° C. in a humidified atmosphere consisting of 95% air and 5% CO2. Experiments were performed on cells at 60% confluence.\nIntracellular Radical Oxygen Species (ROS) (H2O2): Intracellular ROS were detected using dihydrodichlorofluorescein (H2DCF-DA). Cells exposed to different treatments were washed three times with PBS. Cells were centrifuged (2000 RPM, 5 min), resuspended in PBS and incubated with 25 μM H2DCF-DA for 30 min at 37° C. To detect intracellular fluorescence, the fluorochrome-loaded cells were excited using a 488-nm argon-ion laser in a flow cytometer. The dichlorofluorescein (DCF) emission was recorded at 530 nm. Data were collected from at least 10,000 cells. Alternatively, DCF fluorescence was recorded using a microfluorometer plate reader (GENios, Tecan, Austria). Cells were washed twice with PBS, then 25 μM H2DCF-DA was added and cells incubated for 30 min at 37° C. Following an additional wash, cells were lysed with PBS-0.2% Triton-X 100. Total fluorescence was recorded and calibrated according to protein content."}, "[5]": {"system": "myocarditic Coxsackie virus B3", "conditions": "5 ppm in the water; cited from earlier work"}},
  "note": "“Also recorded” adds a separate entry of the source.",
  "data": [
    {"smiles": "[Se]", "note": "[selenium]", "values": [
      {"measurement": "hapten-induced impairment in oxygen consumption", "setting": "[1]; 24 h after TNBS, supplemented vs unsupplemented (FIG. 5 C vs D), unsupplemented approximately 70% impairment", "result": "prevented a significant proportion"},
      {"measurement": "oxygen consumption in healthy colon tissue", "setting": "[1]; healthy rats, supplemented vs unsupplemented (FIG. 5 B vs A)", "result": "little effect; also recorded: did not enhance"},
      {"measurement": "colon tissue lipid peroxidation (MDA content)", "setting": "[2]", "result": "no changes"},
      {"measurement": "mtTFA levels in colon tissue, colitis-induced rats", "setting": "[3]; 24 h after TNBS, supplemented (FIG. 17 lane 4), unsupplemented nearly absolute loss", "result": "surpass that of healthy control rats"},
      {"measurement": "mtTFA levels in colon tissue, healthy rats", "setting": "[3]; healthy supplemented rats (FIG. 17 lane 2)", "result": "significantly enhances"},
      {"measurement": "ROS (H2O2) production over the concentration range", "setting": "[4]; 0.5-30 μM, resting J774.2 (FIG. 8A)", "result": "reduced ROS production in a dose-dependent manner"},
      {"measurement": "ROS production in activated macrophages", "setting": "[4]; LPS 10 ng/ml + INFγ 50 units/ml 24 h, then 10 μM (FIG. 16A)", "result": "reduces"},
      {"measurement": "decrease in peroxide production (DCF fluorescence)", "setting": "[4]; at 30 μM, resting J774.2 (FIG. 8A)", "result": "> 30", "unit": "%"},
      {"measurement": "inflammatory lesions and necrosis", "setting": "[5]", "result": "no effect"}
    ]}
  ]
}
